Legend:
[1] = molecular target: T1, human EHMT2 913-1193 (Homo sapiens, UniProt Q96KQ7); assay: EHMT2 enzyme assay on histone peptide substrate (EHMT2 PEP); type: biochemical; details: Table II; read-out: EHMT2 PEP (IC50 μM)
T1 construct: recombinant purified human EHMT2 913-1193, Viva; purchased Viva
T1 sequence (Q96KQ7 913-1193): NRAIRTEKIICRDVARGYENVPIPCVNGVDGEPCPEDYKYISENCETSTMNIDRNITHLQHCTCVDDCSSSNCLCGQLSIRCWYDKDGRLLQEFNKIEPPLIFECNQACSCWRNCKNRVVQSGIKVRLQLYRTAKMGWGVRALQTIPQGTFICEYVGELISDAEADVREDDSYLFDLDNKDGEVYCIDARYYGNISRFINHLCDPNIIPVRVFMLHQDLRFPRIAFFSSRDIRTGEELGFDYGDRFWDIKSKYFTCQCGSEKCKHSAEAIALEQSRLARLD
Procedure, shortened: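 Compounds (10-point, 3-fold dilutions, top 50 μM final, 2% DMSO) preincubated 30 min with 0.031 nM EHMT2 in 20 mM Bicine pH 7.5, 0.002% Tween 20, 0.005% gelatin, 1 mM TCEP. Biotinylated histone peptide methylated with ^3H-SAM 60 min at room temperature. Quenched with unlabeled SAM; product captured on streptavidin Flashplate, scintillation counted.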

[2] = molecular target: T2, EHMT1 (Homo sapiens, UniProt Q9H9B1); assay: EHMT1 enzyme assay on peptide substrate (EHMT1 PEP); type: biochemical; details: Table II; read-out: EHMT1 PEP (IC50 μM)
T2 sequence (Q9H9B1 1-1298): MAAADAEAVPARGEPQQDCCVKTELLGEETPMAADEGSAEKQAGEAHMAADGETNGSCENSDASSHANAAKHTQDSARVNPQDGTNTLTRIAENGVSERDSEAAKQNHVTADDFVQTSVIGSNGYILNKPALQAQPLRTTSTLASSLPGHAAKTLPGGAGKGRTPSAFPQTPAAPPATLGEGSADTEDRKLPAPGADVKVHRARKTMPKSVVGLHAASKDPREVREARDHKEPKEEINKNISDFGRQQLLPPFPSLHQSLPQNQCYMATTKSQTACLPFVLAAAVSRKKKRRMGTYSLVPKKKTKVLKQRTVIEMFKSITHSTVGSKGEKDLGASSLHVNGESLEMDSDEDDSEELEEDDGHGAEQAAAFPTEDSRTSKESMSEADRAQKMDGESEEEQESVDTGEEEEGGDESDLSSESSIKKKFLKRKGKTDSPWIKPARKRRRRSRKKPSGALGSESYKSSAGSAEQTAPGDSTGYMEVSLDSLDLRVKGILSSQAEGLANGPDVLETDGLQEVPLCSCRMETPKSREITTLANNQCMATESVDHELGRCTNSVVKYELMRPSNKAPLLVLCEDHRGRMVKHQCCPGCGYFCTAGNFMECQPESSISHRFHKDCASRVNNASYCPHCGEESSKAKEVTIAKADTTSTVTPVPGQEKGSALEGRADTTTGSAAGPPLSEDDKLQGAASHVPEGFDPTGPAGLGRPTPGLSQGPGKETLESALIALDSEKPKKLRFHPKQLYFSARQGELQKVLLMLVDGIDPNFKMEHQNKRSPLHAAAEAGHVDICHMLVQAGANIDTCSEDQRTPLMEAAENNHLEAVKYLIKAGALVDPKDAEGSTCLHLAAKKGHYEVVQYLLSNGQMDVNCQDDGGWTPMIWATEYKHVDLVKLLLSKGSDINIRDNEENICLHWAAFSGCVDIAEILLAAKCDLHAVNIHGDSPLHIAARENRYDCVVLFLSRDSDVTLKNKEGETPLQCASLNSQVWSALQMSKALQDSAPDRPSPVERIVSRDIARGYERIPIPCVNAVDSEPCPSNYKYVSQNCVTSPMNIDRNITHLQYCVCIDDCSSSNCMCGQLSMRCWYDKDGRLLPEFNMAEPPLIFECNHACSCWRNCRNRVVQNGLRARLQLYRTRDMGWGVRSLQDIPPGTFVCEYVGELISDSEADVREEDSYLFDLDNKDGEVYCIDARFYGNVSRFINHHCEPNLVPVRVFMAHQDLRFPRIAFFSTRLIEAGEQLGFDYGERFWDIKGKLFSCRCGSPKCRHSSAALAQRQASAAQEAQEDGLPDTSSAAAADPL

| Compound | IC50 [1] [µM] | IC50 [2] [µM] |
| --- | --- | --- |
| COc1ccc(Nc2nccc(N3CCc4nc[nH]c(=O)c4C3)n2)cc1OCCCN1CCCC1 [Compound 134] | > 10 | > 10 |
| COc1ccc(Nc2nccc(N3CC(C(N)=O)C3)n2)cc1OCCCN1CCCC1 [Compound 179] | > 10 | > 10 |
| CNc1cc(C)nc(Nc2ccc(OC)c(OCCCN3CC[C@@H](F)C3)c2)n1 [Compound 186] | 0.1 to 1 | 0.1 to 1 |
| COc1ccc(Nc2nccc(N3CCCN(C(C)=O)CC3)n2)cc1OCCCN1CCCC1 [Compound 138] | 1 to 10 | > 10 |
| COc1ccc(Nc2nccc(N3CC(C(=O)N(C)C)C3)n2)cc1OCCCN1CCCC1 [Compound 170] | > 10 | > 10 |
| COc1ccc(Nc2nccc(N3CCCOCC3)n2)cc1OCCCN1CCCC1 [Compound 151] | > 10 | > 10 |
| COc1ccc(Nc2nccc(NCCn3cccn3)n2)cc1OCCCN1CCCC1 [Compound 193] | 0.1 to 1 | 0.1 to 1 |
| COc1ccc(Nc2nccc(NCc3ccc(=O)[nH]c3)n2)cc1OCCCN1CCCC1 [Compound 165] | 0.1 to 1 | 0.1 to 1 |
| COc1ccc(Nc2nccc(NCc3ccc4nccn4c3)n2)cc1OCCCN1CCCC1 [Compound 191] | < 0.1 | < 0.1 |
| COc1ccc(Nc2nccc(N(C)CCO)n2)cc1OCCCN1CCCC1 [Compound 150] | 0.1 to 1 | 1 to 10 |
| COc1ccc(Nc2ncc(CO)cn2)cc1OCCCN1CCCC1 [Compound 181] | > 10 | > 10 |
| COCCN(C)c1ccnc(Nc2ccc(OC)c(OCCCN3CCCC3)c2)n1 [Compound 177] | 1 to 10 | > 10 |
| COc1ccc(Nc2nccc(NCCc3ccccn3)n2)cc1OCCCN1CCCC1 [Compound 167] | 0.1 to 1 | 0.1 to 1 |
| COc1ccc(Nc2nccc(N3CCc4ncncc4C3)n2)cc1OCCCN1CCCC1 [Compound 156] | 1 to 10 | 1 to 10 |
| COc1ccc(Nc2ccnc(N(C)CC3CCN(C(C)=O)CC3)c2)cc1OCCCN1CCCC1 [Compound 13, 1-(4-(((4-((4-methoxy-3-(3-(pyrrolidin-1-yl)propoxy)phenyl)amino)pyridin-2-yl)(methyl)amino)methyl)piperidin-1-yl)ethan-1-one] | > 10 | > 10 |
| COc1ccc(Nc2nccc(NCC3CCN(C(C)=O)CC3)n2)cc1OCCCNc1ccccc1 [Compound 160] | > 10 | > 10 |
| CNc1cc(Nc2ccc(OC)c(OCCCN3CCCC3)c2)cnn1 [Compound 188] | 0.1 to 1 | 0.1 to 1 |
| COc1ccc(Nc2nccc(N(C)CCCO)n2)cc1OCCCN1CCCC1 [Compound 140] | 1 to 10 | 1 to 10 |
| COCCCN(C)c1ccnc(Nc2ccc(OC)c(OCCCN3CCCC3)c2)n1 [Compound 143] | 1 to 10 | 1 to 10 |
| COc1ccc(Nc2nc(NCC3CCNCC3)cc(N3CCCC3)n2)cc1OCCCN1CCCC1 [Compound 103] | 0.1 to 1 | 0.1 to 1 |
| CNc1cccc(Nc2ccc(OC)c(OCCCN3CCCC3)c2)n1 [Compound 176] | > 10 | > 10 |
| COc1ccc(Nc2nccc(N3CCc4[nH]ncc4C3)n2)cc1OCCCN1CCCC1 [Compound 128] | > 10 | > 10 |
| COc1cnc(Nc2ccnc(CNC3CCOCC3)c2)cc1OCCCN1CCCC1 [Compound 12, 5-methoxy-4-(3-(pyrrolidin-1-yl)propoxy)-N-(2-(((tetrahydro-2H-pyran-4-yl)amino)methyl)pyridin-4-yl)pyridin-2-amine] | 1 to 10 | 1 to 10 |
| COc1ccc(Nc2nc(C)cc(C)n2)cc1OCCCN1CCCC1 [Compound 175] | > 10 | > 10 |
| COc1ccc(Nc2cc(CNC3CCOCC3)n(C)n2)cc1OCCCN1CCCC1 [Compound 127] | > 10 | > 10 |
| COc1ccc(Nc2nccc(N(C)Cc3cccnc3)n2)cc1OCCCN1CCCC1 [Compound 135] | 1 to 10 | 1 to 10 |
| COc1ccc(Nc2nccc(NCC3CCN(C)CC3)n2)cc1OCCCNc1ccccc1 [Compound 159] | > 10 | > 10 |

Continued, values first:

| IC50 [1] [µM] | IC50 [2] [µM] | Compound |
| --- | --- | --- |
| 1 to 10 | 1 to 10 | CC(=O)N1CCC(CNc2ccnc(Nc3ccc(C)c(OCCCN4CCCC4)c3)n2)CC1 [Compound 145] |
| 1 to 10 | 1 to 10 | COc1ccc(Nc2ccnc(OCC3CCN(C(C)=O)CC3)c2)cc1OCCCN1CCCC1 [Compound 157] |
| 1 to 10 | 1 to 10 | COc1ccc(Nc2nccc(N3CCC(C(N)=O)CC3)n2)cc1OCCCN1CCCC1 [Compound 153] |
| 0.1 to 1 | 0.1 to 1 | COc1ccc(Nc2nccc(NCC3CCN(S(C)(=O)=O)CC3)n2)cc1OCCCN1CCCC1 [Compound 199] |
| > 10 | > 10 | COc1ccc(Nc2nccc(N3CCN(C)C(=O)C3)n2)cc1OCCCN1CCCC1 [Compound 132] |
| 1 to 10 | 1 to 10 | COc1ccc(Nc2cc(NCC3CCN(C(C)=O)CC3)cnn2)cc1OCCCN1CCCC1 [Compound 185] |
| 1 to 10 | 1 to 10 | COc1ccc(Nc2nccc(N(C)C3CCOCC3)n2)cc1OCCCN1CCCC1 [Compound 142] |
| > 10 | > 10 | COc1ccc(Nc2nccc(N3CCN(C(C)=O)CC3)n2)cc1OCCCN1CCCC1 [Compound 139] |
| > 10 | > 10 | COc1ccc(Nc2nccc(N3CCS(=O)(=O)CC3)n2)cc1OCCCN1CCCC1 [Compound 169] |
| > 10 | > 10 | COc1ccc(Nc2nccc(N3CCN(S(C)(=O)=O)CC3)n2)cc1OCCCN1CCCC1 [Compound 162] |
| > 10 | > 10 | COc1ccc(Nc2nccc(N3CCC(C)(O)CC3)n2)cc1OCCCN1CCCC1 [Compound 141] |
| > 10 | > 10 | COc1ccc(Nc2nccc(N3CCC(OC)CC3)n2)cc1OCCCN1CCCC1 [Compound 149] |
| > 10 | > 10 | COc1ccc(Nc2cncc(NCC3CCN(C(C)=O)CC3)c2)cc1OCCCN1CCCC1 [Compound 184] |
| 0.1 to 1 | 0.1 to 1 | CCOC(=O)N1CCC(CNc2ccnc(Nc3ccc(OC)c(OCCCN4CCCC4)c3)n2)CC1 [Compound 203] |
| 1 to 10 | 1 to 10 | COc1ccc(Nc2nccc(NCC3CCN(C(C)=O)CC3)n2)cc1OCC(C)CN1CCCC1 (stereo not drawn) [Compound 183] |
| 1 to 10 | 1 to 10 | COc1ccc(Nc2nccc(N(C)CC3CCN(C(C)=O)CC3)n2)cc1OCCCN1CCCC1 [Compound 172] |
| < 0.1 | 0.1 to 1 | COc1ccc(Nc2nccc(NC(C)(C)C)n2)cc1OCCCN1CCCC1 [Compound 6, N^4-(tert-butyl)-N^2-(4-methoxy-3-(3-(pyrrolidin-1-yl)propoxy)phenyl)pyrimidine-2,4-diamine] |
| 0.1 to 1 | 0.1 to 1 | CC(=O)N1CCC(CNc2ccnc(Nc3ccc(Cl)c(OCCCN4CCCC4)c3)n2)CC1 [Compound 8, 1-(4-(((2-((4-chloro-3-(3-(pyrrolidin-1-yl)propoxy)phenyl)amino)pyrimidin-4-yl)amino)methyl)piperidin-1-yl)ethan-1-one] |
